The record followed here is patent US8637480B2, “Mitochondrial function-improving agent” (National University Corporation Kumamoto University, priority 2009, dated 2014).

d = 2'-deoxy (DNA); r = 2'-OH (RNA)

Data set [1] concerns LSD1 target genes in 3T3-L1 cells. As to the kind of experiment: Comprehensive analysis of LSD1 target genes in 3T3-L1 cells using microarray. The following applies: for expression of the LSD1 target candidates (microarray): tranylcypromine 10^−4 M. Type of data set: cell-based, mouse. On the procedure:
(1) Comprehensive Analysis of LSD1 Target Genes in 3T3-L1 Cells, Using Microarray (FIG. 1)
An adipogenesis induction medium was prepared by dissolving […] 3-isobutyl-1-methylxanthine, 1 μM dexamethasone and 5 μg/ml insulin in a Dulbecco's modified Eagle's medium containing 10% fetal bovine serum. Total RNA was extracted using RNeasy mini column (Qiagen). Using GeneChip Mouse Genome Array 430—2 in combination with GeneChip Hybridization, Wash and Stain Kit (Affymetrix), genome-wide expression analysis was carried out
Thereafter, RNA analysis was carried out as described above. Using GeneChip Mouse Genome Array 430—2 in combination with GeneChip Hybridization, Wash and Stain Kit (Affymetrix), genome-wide expression analysis was carried out.

In data set [2] the test system is LSD1 target genes such as PGC-1α in 3T3-L1 cells. Briefly: Expression of LSD1 target genes under inhibition of enzymes associated with FAD synthesis (quantitative RT-PCR). It counts as cell-based, mouse. The following applies: siRNA against FAD synthesis enzymes. On the procedure:
(8) Induction of Expression of LSD1 Target Genes by Inhibition of Enzyme Associated with FAD Synthesis (FIG. 9)
(§1) Using Trizol reagent (Invitrogen), total RNA was extracted from 3T3-L1 cells in which siRNA against riboflavin kinase (RFK) or FAD synthase (FADS) had been introduced. […] Using FAD assay kit (BioVision), the amount of FAD in the cells was measured under inhibition of FAD synthesis.

Another data set deals with FAD in 3T3-L1 cells. As to the kind of experiment: Amount of FAD in cells (FAD assay kit). The following applies: FAD synthesis inhibited. Type of data set: cell-based, mouse. How it is done: as §1
Data set [3] concerns PGC-1α gene expression in 3T3-L1 cells. As to the kind of experiment: Expression analysis of PGC-1α gene and the like by quantitative real-time PCR. The following applies: standardized against 36B4, versus control siRNA or vehicle. Type of data set: cell-based, mouse. How it is done:
(2) Expression Analysis of PGC-1α gene and the Like by Quantitative Real-time PCR (FIG. 2)
Total RNA was extracted using Trizol reagent (Invitrogen). Quantitative RT-PCR was carried out using Fast SYBR Green System (Applied Biosciences). […] The value is given as a multiple of induction to a sample into which control siRNA has been introduced or a sample treated with a vehicle. Statistical significant difference is indicated by *p<0.05, **p<0.01, with respect to control (the same applies below). The following primers were used.

Data set [4] relates to dimethylated H3K4 at LSD1 target gene promoters in 3T3-L1 cells. As to the kind of experiment: Chromatin immunoprecipitation (ChIP) assay for methylation of H3K4. It counts as cell-based, mouse. On the procedure: (3) Chromatin Immunoprecipitation (ChIP) Assay for Detecting Methylation of 4th Lysine Residue of Histone H3 (H3K4) and Binding of LSD1 (FIG. 3 and FIG. 4)
A DNA-protein complex of 3T3-L1 cells was crosslinked using 1% formalin, and chromatin was then fragmented using a water tank ultrasonic processor. The chromatin fragments were incubated at 4° C. overnight in the presence of an antibody directed against methyl-H3K4, LSD1 or BHC80. Thereafter, the reaction product was recovered using agarose beads to which protein A and protein G had been bound. DNA was isolated, and real-time PCR was then carried out using the following primer set

The test system of data set [5] is mPGC-1α promoter (pGL3-PGC-1α reporter) in 3T3-L1 cells. Briefly: PGC-1α promoter activity by luciferase assay. As to conditions: adipose differentiation induced for 24 hours. It counts as cell-based, mouse. How it is done:
(4) Analysis of PGC-1α Promoter Activity by Luciferase Assay (FIG. 5)
In order to construct pGL3-PGC-1α (PGC-1α/Luc) that is a luciferase reporter vector containing an mPGC-1α promoter, a 3707 bps promoter fragment from −3627 to +80 was amplified by PCR, using primers containing a MluI site and a XhoI site at the 5′-terminus and 3′-terminus thereof, respectively. Luciferase assay was carried out using Dual-Luciferase Reporter Assay System (Promega) in accordance with protocols included therewith. 3T3-L1 cells were co-transfected with the pGL3-PGC-1α reporter vector and a pRL-TK reference vector, and adipose differentiation was induced in the presence or absence of TC for 24 hours. Thereafter, luciferase activity was measured. When siRNA was applied, it was introduced 24 hours before transfection with the reporter.

The test system of a further data set is 3T3-L1 cells. As to the kind of experiment: Mitochondrial biosynthesis in 3T3-L1 cells by JC-1 staining and flow cytometry. As to conditions: tranylcypromine 10^−3 or 10^−4 M, flow cytometry. Type of data set: cell-based, mouse. How it is done: For the measurement of mitochondrial biosynthesis, cells were stained with a fluorescent dye JC-1 (Molecular Probes), and they were then analyzed by flow cytometry. JC-1 binds to the mitochondrial inner membrane to emit green fluorescence, and forms a red fluorescent aggregate, depending on membrane potential. Accordingly, the amount of mitochondria can be evaluated by detecting the green fluorescence, whereas the amount of mitochondrial electron transport can be evaluated by detecting the red fluorescence. […] Subsequently, the cells were allowed to come into contact with 5 μg/ml JC-1 in a medium at 37° C. for 15 minutes, and they were then suspended in PBS, followed by FACS analysis. The green fluorescence and the red fluorescence were detected by FL1 and FL2 settings, respectively. The value indicates a mean fluorescence intensity in each setting.

Data set [6] has as its system LSD1 target genes such as PGC-1α in 3T3-L1 cells. The following applies: 24 hours, 10^−4 M (clorgyline 10^−5 M). How it is done: (12) Effects of Various Types of MAO Inhibitors on LSD1 Target Gene Group (FIG. 13)
Thereafter, RNA analysis was carried out. Expression analysis was carried out as described above. The expression level of PGC-1α or the like was standardized against the internal control gene 36B4. The value was given as a multiple of induction to a control treated with a vehicle.

Data set [7] deals with LSD1 target genes including PGC-1α. The following applies: high fat diet 6 weeks, 10 mg/kg intraperitoneally every other day, versus PBS.
Where [8] appears, read: 3T3-L1 cells, 24 hours differentiation induction.

Take “RFK siRNA: siRNA against riboflavin kinase: sense SEQ ID NO: 33, antisense SEQ ID NO: 34 (sense UCUUCCAGCUGAUGUGUCUTT; antisense AGACACAUCAGCUGGAAGATT; sugars from the 5' end r19 d2, backbone not given here)”: in data set [1] (3T3-L1 cells, RFK knock-down, 24 hours differentiation induction), the “expression of a majority of LSD1 target genes (microarray)” value is “induced”. Further, in [2], the “expression of LSD1 target genes such as PGC-1α” value is listed as “activated”. For the same molecule, the “amount of FAD in a cell” value in the data set on FAD in 3T3-L1 cells is listed as “decreased”.

As to “LSD1 siRNA: siRNA against LSD1: sense SEQ ID NO: 29, antisense SEQ ID NO: 30 (sense CACAAGGAAAGCUAGAAGATT; antisense UCUUCUAGCUUUCCUUGUGTT; sugars from the 5' end r19 d2, backbone not given here)”, the “number of target candidates induced to a higher level (2-fold or more)” value in data set [1] (differentiating 3T3-L1 cells, 24 hours in differentiation induction medium, microarray) is given as 601. For the same molecule, the “expression of genes such as PGC-1α (quantitative RT-PCR)” value (“expression of genes such as PGC-1α” for short) in data set [3] was “Induction of the expression”. For the same molecule, in data set [4], the “amount of dimethylated H3K4 in PGC-1α gene promoter versus control” value is “approximately 2 fold” and the “amount of dimethylated H3K4 in other LSD1 target gene promoters such as PDK4” value was “The same results were obtained”. Besides, the “expression of luciferase reporter gene downstream of the PGC-1α promoter” value in data set [5] is “activated (disinhibited)”. Moreover, in the data set with 3T3-L1 cells, the “amount of mitochondria (JC-1 green fluorescence, FL1)” value is “the same results were obtained” and the “mitochondrial membrane potential (JC-1 red fluorescence, FL2)” value is on record as “the same results were obtained”.

With `N[C@@H]1C[C@H]1c1ccccc1` (racemic) [tranylcypromine, reference compound], in data set [1] (setting [8]), the “expression of the LSD1 target candidates (microarray)” value is reported as “induced”. For the same molecule, the “expression of genes such as PGC-1α” value in data set [3] is “Induction of the expression”. Also, the “amount of dimethylated H3K4 in other LSD1 target gene promoters such as PDK4” value in data set [4] is on record as “The same results were obtained”. The “amount of dimethylated H3K4 in PGC-1α promoter” value in data set [4] (under treatment) is listed as “increase in the amount of dimethylated H3K4 was detected”. Further, the “expression of luciferase reporter gene downstream of the PGC-1α promoter” value in data set [5] is listed as “activated (disinhibited)”. Besides, in the data set on 3T3-L1 cells, the “amount of mitochondria (JC-1 green fluorescence, FL1)” value is “stimulatory effect” and the “mitochondrial membrane potential (JC-1 red fluorescence, FL2)” value is “stimulatory effect”. In addition, the “activation of LSD1 target genes such as PGC-1α compared with other MAO inhibitors” value in data set [6] was “significant activation”. Further, in data set [7], the “expression of LSD1 target genes including PGC-1α in fat around the testis” value was “increased” and the “expression of LSD1 target genes including PGC-1α in the liver” value is reported as “The same results as described above were obtained”.

“FADS siRNA: siRNA against FAD synthase: sense SEQ ID NO: 35, antisense SEQ ID NO: 36 (sense GAGCCCUUGGAGGAAUGUCTT; antisense GACAUUCCUCCAAGGGCUCTT; sugars from the 5' end r19 d2, backbone not given here)”: the “expression of LSD1 target genes such as PGC-1α” value in data set [2] was “activated”. Also, the “amount of FAD in a cell” value in the data set on FAD in 3T3-L1 cells is given as “decreased”.

“BHC80 siRNA: siRNA against LSD1 coupling factor BHC80: sense SEQ ID NO: 31, antisense SEQ ID NO: 32 (sense GUUCCAGAUACAGCCAUUGTT; antisense CAAUGGCUGUAUCUGGAACTT; sugars from the 5' end r19 d2, backbone not given here)”: the “expression of the LSD1 target candidates (microarray)” value in data set [1] (setting [8]) is reported as “induced”. Moreover, the “expression of genes such as PGC-1α” value in data set [3] was “Induction of the expression”.
